Measured values taken from patent publication US20200253990A1, “ASPIRIN FORMULATION FOR INCREASED EFFICACY” (Vitalis LLC, priority 2013, published 2020).

Key:
[1] = tested on: Healthy human patients; assay: Niacin flush rated on the Global Flush Severity Scale (GFSS), Example 1; format: in vivo; details: then 500 mg niacin
Method: Healthy human patients were recruited for this study. […] Each patient was asked to rate his or her flush on the Global Flush Severity Scale (GFSS) (see FIG. 1 and Paolini et al. Int. J. Clin. Pract. 62(6):896-904 (2008)), when the flush completely resolved. The Global Flushing Severity Score measures, overall, in the previous 24 hours, how each patient rates the flushing symptoms, including redness, warmth, tingling, and itchiness of the skin. […] After the flush completely resolved, then each patient recorded his or her GFSS flush rating. Not until at least two days later did Period III start. At Period III, each patient was asked to not swallow the orally administered aspirin (81 mg) but to allow the aspirin to be absorbed through the oral mucosa. The aspirin was in powdered form and the remaining aspirin in the mouth was washed out with water. […] Still, the flush was rated (GFSS) after it was resolved. […] The flush was then rated (GFSS) after it completely resolved.

[2] = tested on: Healthy human patients who experience non-specific headaches; assay: Headache rated on 10-point scale, aspirin with acetaminophen and caffeine, Example 4; format: in vivo; details: 30 minutes
Method: (§1) Healthy human patients who experience non-specific headaches were recruited for this study. […] Each patient was asked to rate his or her headache on the 10-point scale (see FIG. 3). The patient then swallowed 486 mg of aspirin (6 tablets of 81 mg each) without chewing, immediately followed by swallowing a combination of pill 1000 mg acetaminophen and 130 mg caffeine. Each patient was asked to rate his or headache again on the 10-point scale 30-minutes later. […] The patient then chewed 486 mg of aspirin (6 tablets of 81 mg each) and rubbed the aspirin in their oral mucosa, lips, gums and mouth and was asked to be careful not to swallow any of the aspirin, but to wash out their mouth afterwards with a sip of soda and spitting out such that no aspirin was swallowed. This was immediately followed by the patient swallowing a combination pill of 1000 mg acetaminophen and 130 mg caffeine. Each patient was asked to rate his or headache again on the 10-point scale 30-minutes later. Not until at least two days later did Period III start. […] The patient then chewed 486 mg of aspirin (6 tablets of 81 mg each) and rubbed the aspirin in their oral mucosa, lips, gums and mouth for about 10 seconds or until half was dissolved, then to take a sip of soda to wash the rest, but this time to swallow the soda and aspirin such that half was swallowed. This was immediately followed by the patient swallowing a combination pill of 1000 mg acetaminophen and 130 mg caffeine. Each patient was asked to rate his or headache again on the 10-point scale 30-minutes later.

[3] = tested on: Healthy human patients who experience non-specific headaches; assay: Headache rated on 10-point scale, aspirin alone, Example 5; format: in vivo; details: 30 minutes
Method: as §1, with “891” for “486”, “(11” for “(6”, “chewing.” for “chewing, immediately followed by swallowing a combination of pill 1000 mg acetaminophen and 130 mg caffeine.”, “swallowed.” for “swallowed. This was immediately followed by the patient swallowing a combination pill of 1000 mg acetaminophen and 130 mg caffeine.”

[4] = cited from earlier work
[5] = Period II: 81 mg aspirin swallowed
[6] = Period IV: 81 mg aspirin half mucosally absorbed and half swallowed

SMILES: CC(=O)Oc1ccccc1C(=O)O [aspirin, acetylsalicylic acid]
- Global Flush Severity Scale (GFSS) average score [1, 5]: 6.88
- reduction of flush severity from Period I [1, 5]: 18%
- Global Flush Severity Scale (GFSS) average score ([1]; Period III: 81 mg aspirin mucosally absorbed (not swallowed)): 5.06
- reduction of flush severity from Period I ([1]; Period III: 81 mg aspirin mucosally absorbed): 40%
- Global Flush Severity Scale (GFSS) average score [1, 6]: 3.94
- reduction of flush severity from Period I [1, 6]: 53%
- decrease in headache ([2]; Period I: 486 mg aspirin swallowed + 1000 mg acetaminophen and 130 mg caffeine): 55%
- decrease in headache ([2]; Period II: 486 mg aspirin chewed, oral mucosa only, none swallowed + 1000 mg acetaminophen and 130 mg caffeine): 62%
- decrease in headache ([2]; Period III: 486 mg aspirin half dissolved in mouth, half swallowed + 1000 mg acetaminophen and 130 mg caffeine): 77%
- decrease in headache ([3]; Period I: 891 mg aspirin swallowed): 53%
- decrease in headache ([3]; Period II: 891 mg aspirin chewed, oral mucosa only, none swallowed): 57%
- decrease in headache ([3]; Period III: 891 mg aspirin half dissolved in mouth, half swallowed): 86%
- time to peak of aspirin serum levels following administration ([4]; GI-absorbed aspirin): 15 to 20 min

SMILES: O=C(O)c1ccccc1O [salicylic acid]
- time within which most of the elimination from the serum occurs ([4]; salicylic acid, metabolite of aspirin): ≤ 20 min
